In patent US20020076736A1, “Methods of affecting laminin 5 processing” (priority 2000, published 2002):
“Also recorded” adds a separate entry of the source.

Experiments:
BMP-1 = molecular target: T1, BMP-1 (Homo sapiens, UniProt P13497); assay: Inhibition of BMP-1 activity, enzyme-based assays of collagen proteolysis; type: biochemical
T1 sequence (P13497 121-730 isoform P13497-2 limits assumed): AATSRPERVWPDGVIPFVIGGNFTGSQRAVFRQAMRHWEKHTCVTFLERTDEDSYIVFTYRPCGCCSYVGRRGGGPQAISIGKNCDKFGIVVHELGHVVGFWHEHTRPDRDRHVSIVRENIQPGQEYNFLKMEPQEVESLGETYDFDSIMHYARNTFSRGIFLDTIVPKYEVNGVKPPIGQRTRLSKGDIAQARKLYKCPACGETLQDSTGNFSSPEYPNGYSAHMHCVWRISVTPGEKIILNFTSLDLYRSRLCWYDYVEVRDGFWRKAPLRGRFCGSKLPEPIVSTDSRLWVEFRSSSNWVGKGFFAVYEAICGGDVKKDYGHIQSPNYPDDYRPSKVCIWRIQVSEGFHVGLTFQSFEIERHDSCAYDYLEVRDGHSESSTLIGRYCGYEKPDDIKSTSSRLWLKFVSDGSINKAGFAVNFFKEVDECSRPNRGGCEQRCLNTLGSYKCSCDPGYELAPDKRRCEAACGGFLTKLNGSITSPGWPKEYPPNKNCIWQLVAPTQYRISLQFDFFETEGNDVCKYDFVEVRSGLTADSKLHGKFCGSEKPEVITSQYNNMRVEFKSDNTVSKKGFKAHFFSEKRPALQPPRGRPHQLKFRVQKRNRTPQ

cultured cells = assay: Toxicity to cultured cells; type: cell-based; details: for toxicity to cultured cells at 100 times inhibitory levels: 100 times the concentration which inhibited BMP-1 activity; for toxic effect on cells: cell culture
MT1-MMP = MT1-MMP (Homo sapiens, UniProt P50281); assay: Inhibition of MT1-MMP activity; type: biochemical
squamous carcinoma cells = assay: Migration of squamous carcinoma cells (general statement); type: cell-based
keratinocytes = assay: Keratinocyte migration, Boyden chambers; type: cell-based; details: for inhibition of keratinocyte migration, dose dependence: Boyden chamber and scratch assays
Procedure: Compounds 1 and 2 were used to examine the functional effects of processing by BMP-1 related proteins on keratinocyte migration. […] Keratinocytes were analyzed for migration in Boyden chambers in the presence of increasing amounts of the inhibitors. […] (Koivunen et al. (1999) Nature Biotechnology 17:768-774.)

MMP-1 = molecular target: T2, MMP-1 (Homo sapiens, UniProt P03956); assay: Inhibition of MMP-1 activity; type: biochemical
T2 sequence (P03956 100-469): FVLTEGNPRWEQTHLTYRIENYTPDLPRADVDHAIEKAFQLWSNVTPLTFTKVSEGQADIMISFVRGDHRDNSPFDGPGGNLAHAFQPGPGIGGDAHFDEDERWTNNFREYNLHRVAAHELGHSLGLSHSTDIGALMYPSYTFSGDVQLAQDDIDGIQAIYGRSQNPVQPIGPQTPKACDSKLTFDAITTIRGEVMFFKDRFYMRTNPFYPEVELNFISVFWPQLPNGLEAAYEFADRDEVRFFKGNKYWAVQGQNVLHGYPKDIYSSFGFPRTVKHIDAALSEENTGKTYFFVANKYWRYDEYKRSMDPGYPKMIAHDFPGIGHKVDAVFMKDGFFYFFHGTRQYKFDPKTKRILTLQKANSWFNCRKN

MMP-2 = molecular target: T3, MMP-2 (Homo sapiens, UniProt P08253); assay: Inhibition of MMP-2 activity; type: biochemical
T3 sequence (P08253 110-660): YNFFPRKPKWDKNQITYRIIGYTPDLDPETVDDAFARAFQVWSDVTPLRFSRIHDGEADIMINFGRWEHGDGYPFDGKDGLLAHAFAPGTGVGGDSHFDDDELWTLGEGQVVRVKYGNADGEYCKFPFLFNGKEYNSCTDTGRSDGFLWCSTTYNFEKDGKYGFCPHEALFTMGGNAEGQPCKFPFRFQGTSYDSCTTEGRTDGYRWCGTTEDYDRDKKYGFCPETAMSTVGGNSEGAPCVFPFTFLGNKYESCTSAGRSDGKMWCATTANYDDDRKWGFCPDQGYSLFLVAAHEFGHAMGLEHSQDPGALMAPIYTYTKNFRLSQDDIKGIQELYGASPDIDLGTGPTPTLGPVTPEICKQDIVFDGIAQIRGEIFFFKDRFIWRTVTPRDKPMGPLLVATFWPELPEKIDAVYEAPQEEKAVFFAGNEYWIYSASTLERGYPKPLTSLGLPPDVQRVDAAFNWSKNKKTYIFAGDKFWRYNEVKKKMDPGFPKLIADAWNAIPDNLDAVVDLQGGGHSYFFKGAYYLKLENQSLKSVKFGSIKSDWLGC

MMP-9 = MMP-9 (Homo sapiens, UniProt P14780); assay: Inhibition of MMP-9 activity; type: biochemical
[1] = molecular target: unprocessed human laminin 5 (α3 chain of 200 kDa, β3 chain of 140 kDa, γ2 chain of 155 kDa) (UniProt Q16787)
Sequence of unprocessed human laminin 5 (α3 chain of 200 kDa, β3 chain of 140 kDa, γ2 chain of 155 kDa) (Q16787 whole entry, looked up): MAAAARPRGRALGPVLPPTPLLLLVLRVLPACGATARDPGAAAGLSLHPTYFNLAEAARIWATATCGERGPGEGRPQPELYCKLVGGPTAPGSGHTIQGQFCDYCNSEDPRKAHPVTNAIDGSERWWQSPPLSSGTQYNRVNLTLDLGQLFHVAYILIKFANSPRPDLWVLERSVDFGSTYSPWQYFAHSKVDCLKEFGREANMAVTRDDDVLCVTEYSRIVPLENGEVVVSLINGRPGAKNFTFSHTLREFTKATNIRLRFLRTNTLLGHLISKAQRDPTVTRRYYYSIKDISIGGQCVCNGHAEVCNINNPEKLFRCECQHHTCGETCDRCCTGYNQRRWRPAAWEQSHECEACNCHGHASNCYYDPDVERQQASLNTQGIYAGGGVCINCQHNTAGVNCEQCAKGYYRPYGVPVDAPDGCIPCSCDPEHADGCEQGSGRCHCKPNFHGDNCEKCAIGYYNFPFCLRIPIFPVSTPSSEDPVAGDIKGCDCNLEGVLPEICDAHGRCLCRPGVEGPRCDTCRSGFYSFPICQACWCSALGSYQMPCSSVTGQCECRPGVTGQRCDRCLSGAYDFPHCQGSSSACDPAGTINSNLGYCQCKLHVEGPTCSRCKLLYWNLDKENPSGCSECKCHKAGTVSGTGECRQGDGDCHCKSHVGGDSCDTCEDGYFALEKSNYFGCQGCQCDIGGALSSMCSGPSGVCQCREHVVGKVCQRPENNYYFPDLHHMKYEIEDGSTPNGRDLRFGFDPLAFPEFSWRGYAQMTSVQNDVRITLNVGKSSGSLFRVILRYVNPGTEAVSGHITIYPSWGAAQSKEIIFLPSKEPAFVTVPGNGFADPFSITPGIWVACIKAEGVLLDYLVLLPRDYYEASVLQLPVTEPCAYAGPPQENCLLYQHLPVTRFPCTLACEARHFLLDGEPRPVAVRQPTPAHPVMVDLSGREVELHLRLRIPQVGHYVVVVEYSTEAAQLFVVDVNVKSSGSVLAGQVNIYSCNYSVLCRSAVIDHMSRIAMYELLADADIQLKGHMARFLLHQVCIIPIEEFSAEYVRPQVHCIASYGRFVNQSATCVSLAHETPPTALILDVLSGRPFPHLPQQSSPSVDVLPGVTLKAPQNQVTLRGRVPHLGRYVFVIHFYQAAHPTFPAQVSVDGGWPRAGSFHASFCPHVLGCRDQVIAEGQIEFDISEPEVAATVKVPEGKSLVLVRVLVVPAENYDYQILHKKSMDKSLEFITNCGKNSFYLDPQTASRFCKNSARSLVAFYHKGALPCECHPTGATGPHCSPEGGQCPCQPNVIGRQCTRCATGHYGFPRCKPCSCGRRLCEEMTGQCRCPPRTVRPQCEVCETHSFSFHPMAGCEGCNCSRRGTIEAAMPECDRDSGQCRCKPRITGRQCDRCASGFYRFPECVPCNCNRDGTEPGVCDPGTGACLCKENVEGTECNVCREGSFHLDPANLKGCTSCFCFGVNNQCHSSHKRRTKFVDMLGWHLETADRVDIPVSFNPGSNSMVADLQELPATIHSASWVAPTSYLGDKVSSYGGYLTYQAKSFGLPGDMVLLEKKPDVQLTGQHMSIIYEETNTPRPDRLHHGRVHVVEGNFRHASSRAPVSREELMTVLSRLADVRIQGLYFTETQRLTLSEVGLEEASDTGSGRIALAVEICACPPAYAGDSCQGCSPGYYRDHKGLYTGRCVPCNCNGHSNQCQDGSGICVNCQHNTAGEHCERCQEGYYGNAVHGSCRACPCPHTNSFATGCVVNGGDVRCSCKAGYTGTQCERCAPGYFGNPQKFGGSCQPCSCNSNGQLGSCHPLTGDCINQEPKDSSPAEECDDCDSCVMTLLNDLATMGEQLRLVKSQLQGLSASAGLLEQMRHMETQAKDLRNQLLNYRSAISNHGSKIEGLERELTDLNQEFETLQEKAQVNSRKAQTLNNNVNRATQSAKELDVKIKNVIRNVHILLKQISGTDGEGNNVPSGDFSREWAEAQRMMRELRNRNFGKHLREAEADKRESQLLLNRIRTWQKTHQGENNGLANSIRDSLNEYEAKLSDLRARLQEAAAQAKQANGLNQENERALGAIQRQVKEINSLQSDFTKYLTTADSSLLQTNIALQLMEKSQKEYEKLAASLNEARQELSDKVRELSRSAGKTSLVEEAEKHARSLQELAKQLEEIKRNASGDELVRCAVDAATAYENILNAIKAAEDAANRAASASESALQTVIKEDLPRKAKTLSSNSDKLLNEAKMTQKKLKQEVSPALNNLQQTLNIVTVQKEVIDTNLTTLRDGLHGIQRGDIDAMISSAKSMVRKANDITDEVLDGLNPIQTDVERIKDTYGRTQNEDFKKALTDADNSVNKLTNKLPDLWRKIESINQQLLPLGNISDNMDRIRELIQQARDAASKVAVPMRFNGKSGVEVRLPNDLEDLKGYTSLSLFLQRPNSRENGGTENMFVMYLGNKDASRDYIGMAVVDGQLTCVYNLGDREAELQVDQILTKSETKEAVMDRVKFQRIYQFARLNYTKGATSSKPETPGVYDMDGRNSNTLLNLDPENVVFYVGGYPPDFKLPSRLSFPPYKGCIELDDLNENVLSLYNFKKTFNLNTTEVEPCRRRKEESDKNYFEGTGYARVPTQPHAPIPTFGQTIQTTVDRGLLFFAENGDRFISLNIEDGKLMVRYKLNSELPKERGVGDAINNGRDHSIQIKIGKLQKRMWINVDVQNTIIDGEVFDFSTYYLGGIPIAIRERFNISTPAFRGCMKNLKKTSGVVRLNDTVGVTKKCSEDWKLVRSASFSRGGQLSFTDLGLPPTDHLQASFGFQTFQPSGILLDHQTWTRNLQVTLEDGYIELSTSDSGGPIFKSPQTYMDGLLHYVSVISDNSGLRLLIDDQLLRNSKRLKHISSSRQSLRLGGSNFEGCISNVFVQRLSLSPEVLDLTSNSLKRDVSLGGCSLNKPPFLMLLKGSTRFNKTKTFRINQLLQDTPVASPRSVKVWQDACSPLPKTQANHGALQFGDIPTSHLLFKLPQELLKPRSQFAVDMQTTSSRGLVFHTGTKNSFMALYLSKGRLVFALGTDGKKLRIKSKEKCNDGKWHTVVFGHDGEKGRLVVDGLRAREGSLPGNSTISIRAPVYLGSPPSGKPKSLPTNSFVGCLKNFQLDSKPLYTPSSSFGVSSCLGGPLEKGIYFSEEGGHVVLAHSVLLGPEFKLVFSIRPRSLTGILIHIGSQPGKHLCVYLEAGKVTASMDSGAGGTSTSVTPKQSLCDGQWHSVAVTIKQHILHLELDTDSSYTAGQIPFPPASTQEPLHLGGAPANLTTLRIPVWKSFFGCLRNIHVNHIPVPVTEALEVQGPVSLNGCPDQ

Sequence of MMP-9 (P14780 94-707, species assumed): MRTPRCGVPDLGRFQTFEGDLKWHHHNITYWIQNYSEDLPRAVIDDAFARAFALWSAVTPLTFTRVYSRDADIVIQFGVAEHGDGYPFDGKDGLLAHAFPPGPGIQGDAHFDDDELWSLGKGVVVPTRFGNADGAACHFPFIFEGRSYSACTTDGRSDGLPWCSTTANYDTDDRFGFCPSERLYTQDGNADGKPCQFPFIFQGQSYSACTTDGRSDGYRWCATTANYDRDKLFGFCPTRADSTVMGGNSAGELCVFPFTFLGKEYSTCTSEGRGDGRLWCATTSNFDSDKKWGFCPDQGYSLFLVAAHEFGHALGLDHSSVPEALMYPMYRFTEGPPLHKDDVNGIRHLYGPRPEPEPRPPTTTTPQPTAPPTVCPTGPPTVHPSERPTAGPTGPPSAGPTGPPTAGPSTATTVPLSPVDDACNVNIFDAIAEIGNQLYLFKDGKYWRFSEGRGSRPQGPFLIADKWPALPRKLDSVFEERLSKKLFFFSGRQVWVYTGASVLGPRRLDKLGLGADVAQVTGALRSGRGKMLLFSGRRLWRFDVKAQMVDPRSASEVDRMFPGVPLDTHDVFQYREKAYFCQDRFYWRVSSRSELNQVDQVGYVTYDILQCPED

Compound	inhibition of BMP-1 activity (BMP-1)	toxicity to cultured cells at 100 times inhibitory levels (cultured cells)	toxic effect on cells (cultured cells)	inhibition of activity of MT1-MMP (MT1-MMP)	inhibition of migration of squamous carcinoma cells (squamous carcinoma cells)	inhibition of keratinocyte migration (keratinocytes)	inhibition of keratinocyte migration, dose dependence (keratinocytes)	dose required to achieve nearly complete inhibition of migration (keratinocytes; Boyden chambers)	inhibition of migration of keratinocytes, dose dependence (keratinocytes; Boyden chambers, 0, 10, 23 μM)	inhibition of activity of MMP-1 (MMP-1)	inhibition of activity of MMP-2 (MMP-2)	inhibition of activity of MMP-9 (MMP-9)	potency of BMP-1 inhibition relative to the other compounds (BMP-1)	cleavage of human laminin 5 [1]	digestion of laminin 5 (100 ng/ml MMP-2, 37° C., 16 hours, western blot) [1]	processing of collagen XVII (collagen XVII)	digestion of type IV collagen (positive control, data not shown) (type IV collagen)	processing of collagen IV (type IV collagen)
O=C(CCCC1C(=O)N(C23CC4CC(CC(C4)C2)C3)C(=O)N1Cc1ccccn1)NO (stereo not shown) [Compound 1]	showed inhibition of BMP-1 activity	nontoxic	nontoxic; also recorded: no toxic effect on cells	no inhibition	potently inhibit	potently inhibit	inhibition of KC migration in a dose-dependent manner	23 µM	dose dependent	no inhibition	no inhibition	no inhibition						
COc1ccc(CCN(CCC(=O)NO)S(=O)(=O)c2ccc(C(N)=NO)cc2)cc1 [Compound 3]	showed inhibition of BMP-1 activity	nontoxic	low cytotoxicity; also recorded: no toxic effect on cells	no inhibition	potently inhibit	potently inhibit	inhibition of KC migration in a dose-dependent manner			no inhibition	no inhibition	no inhibition	slightly less potent					
MMP-2														it failed to cleave human laminin 5, even at six times the enzyme-to-substrate ratio used for BMP-1 cleavage studies	no digestion of laminin 5 was seen with 100 ng/ml MMP-2 (over three times the amount of BMP-1 on a molar basis)	it readily processed collagen XVII and collagen IV	MMP-2 completely digested an equimolar quantity of type IV collagen under the same conditions	it readily processed collagen XVII and collagen IV
